Measured values from patent US6037365A, “Aminobenzamidinosuccinyl lactone derivatives useful as inhibitors of platelet aggregation” (G.D. Searle & Co., priority 1998, dated 2000).
Structures can show the parent of a compound that is named as a salt.

tested on: platelet aggregation in platelet-rich plasma (PRP); test: In-Vitro Platelet Aggregation in PRP (ADP-induced); format: cell-based, dogs; details: Canis lupus familiaris, Platelet, dog PRP, ADP 50 μM final concentration, 1 min preincubation at 37° C., aggregation monitored 1 min; unit inferred; read-out: IC50 (dosage at which 50% of platelet aggregation is inhibited)
Description: In-Vitro Platelet Aggregation in PRP
Healthy male or female dogs were fasted for 8 hours prior to drawing blood; then 30 mL whole blood was collected using a butterfly needle and 30 mL plastic syringe with 3 mL of 0.129M buffered sodium citrate (3.8%). The syringe was rotated carefully as blood was drawn to mix the citrate. Platelet-rich plasma (PRP) was prepared by centrifugation at 975×g for 3.17 minutes at room temperature allowing the centrifuge to coast to a stop without braking. The PRP was removed from the blood with a plastic pipette and placed in a plastic-capped 50 mL Corning conical sterile centrifuge tube which was held at room temperature. Platelet-poor plasma (PPP) was prepared by centrifuging the remaining blood at 2000×g for 15 minutes at room temperature allowing the centrifuge to coast to a stop without braking. The PRP was adjusted with PPP to a count of 2-3×10^8 platelets/mL. The PRP preparation (400 μL) and 50 μL of the compound solution to be tested or saline were preincubated for 1 minute at 37° C. in a BioData aggregometer (BioData, Horsham, Pa.). Adenosine-5'-diphosphate (ADP, 50 μL, 50 μM final concentration) was added to the cuvettes and the aggregation was monitored for 1 minute. All compounds are tested in duplicate. Results are calculated as follows: Percent of control=[(maximal OD minus initial OD of compound) divided by (maximal OD minus initial OD of control saline)]×100. The percent inhibition equals 100-(percent of control).
The compounds tested and their median inhibitory concentrations (IC50) are recorded in Table 1. The IC50 (dosage at which 50% of platelet aggregation is inhibited) were calculated by linear regression of the dose response curve.

Point of comparison: `N=C(N)c1ccc(NC(=O)CCC(=O)NC2CC(=O)Oc3ccccc32)cc1` (centres unmarked) [Ex 8 Step 2, N-[4-(aminoiminomethyl)phenyl]-N'-[3,4-dihydro-2-oxo-2H-1-benzopyran-4-yl]butanediamide, Trifluoroacetate], IC50 200 nM. Against it:
- C=CC(O)[C@H](CC(=O)O)NC(=O)CCC(=O)Nc1ccc(C(=N)N)cc1 (stereo partly drawn) [Ex 7 Step 5, 3S-[[4-[[4-(aminoiminomethyl)phenyl]amino]-1,4-dioxobutyl]amino]-4-hydroxy-hex-5-enoic acid, trifluoroacetate] — within 1.5-fold, 290 nM
- N=C(N)c1ccc(NC(=O)CCC(=O)N[C@H](CO)CC(=O)O)cc1 [Ex 1 Step 5, 3S-[[4-[[4-aminoiminomethyl)phenyl]amino]-1,4-dioxobutyl]amino]-4-hydroxybutanoic acid, trifluoroacetate] — 3.5-fold higher, 700 nM
- N=C(N)c1ccc(NC(=O)CCC(=O)N[C@H]2CC(=O)OC2c2ccc(F)cc2)cc1 (single isomer, unassigned; diastereoisomer a) [Ex 4 Step 4] — 2.5-fold higher, 500 nM
- N=C(N)c1ccc(NC(=O)CCC(=O)NC(CC(=O)O)c2ccccc2O)cc1 (centres unmarked) [Ex 8 Step 1, 3-[[4-[[4-(aminoiminomethyl)phenyl]-amino]-1,4-dioxobutyl]amino-]3(-hydroxyphenyl)propanoic acid] — within 1.5-fold, 260 nM
- N=C(N)c1ccc(NC(=O)CCC(=O)N[C@@H]2COC(=O)C2)cc1 [Ex 1 Step 4, N-[4-(aminoiminomethyl)phenyl]-N'-(tetrahydro-5-oxo-3S-furanyl)butanediamide, Trifluoroacetate] — 15-fold higher, 3000 nM

same assay, conditions: dog PRP, ADP 50 μM final concentration, 1 min preincubation at 37° C., aggregation monitored 1 min; unit inferred; read-out: IC50 (dosage at which 50% of platelet aggregation is inhibited)

Point of comparison: `N=C(N)c1ccc(NC(=O)CCC(=O)N[C@@H](CC(=O)O)C(O)c2ccc3c(c2)OCO3)cc1` (single isomer, unassigned) [Ex 9 Step 6, 3S-[[4-[[4-(aminoiminomethyl)phenyl]amino]-1,4-dioxobutyl]amino]-4-hydroxy-[5-(1,3-benzodioxolyl)]butanoic acid, trifluoroacetate], IC50 350 nM. Against it:
- N=C(N)c1ccc(NC(=O)CCC(=O)N[C@@H](CC(=O)O)C(O)c2ccc(F)cc2)cc1 (single isomer, unassigned) [Ex 4 Step 5, 3S-[[4-[[4-(aminoiminomethyl)phenyl]amino]-1,4-dioxobutyl]amino]-4-hydroxy-(4-fluoro-phenyl)butanoic acid, trifluoroacetate] — 2.3-fold lower, 150 nM
- N=C(N)c1ccc(NC(=O)CCC(=O)N[C@@H](CC(=O)O)C(O)c2ccccc2)cc1 (single isomer, unassigned) [Ex 3 Step 2, 3S-[[4-[[4-(aminoiminomethyl)phenyl]amino]-1,4-dioxobutyl]amino]-4-hydroxy-phenylbutanoic acid, trifluoroacetate] — 1.7-fold higher, 600 nM
- N=C(N)c1ccc(NC(=O)CCC(=O)N[C@@H](CC(=O)O)C(O)c2ccc3c(c2)OCO3)cc1 (single isomer, unassigned) [Ex 10 Step 2, 3S-[[4-[[4-(aminoiminomethyl)phenyl]amino]-1,4-dioxobutyl]amino-4-hydroxy-4-[5-(1,3-benzodioxolyl)]butanoic acid, trifluoroacetate] — 3.7-fold higher, 1300 nM
- N=C(N)c1ccc(NC(=O)CCC(=O)N[C@H]2CC(=O)OC2c2ccc3c(c2)OCO3)cc1 (single isomer, unassigned; diastereoisomer 1) [Ex 9 Step 5, N-[4-(aminoiminomethyl)phenyl]-N'-[tetrahydro-5-oxo-2-[5-(1,3-benzodioxolyl)]-3S-furanyl]butanediamide, Trifluoroacetate; Diastereoisomer 1] — within 1.5-fold, 430 nM
- N=C(N)c1ccc(NC(=O)CCC(=O)N[C@H]2CC(=O)OC2c2ccc3c(c2)OCO3)cc1 (single isomer, unassigned; diastereoisomer 2) [Ex 10 Step 1] — 8.6-fold higher, 3000 nM
- N=C(N)c1ccc(NC(=O)CCC(=O)N[C@H]2CC(=O)OC2c2ccccc2)cc1 (single isomer, unassigned; isomer b) [Ex 3 Step 1, N-[4-(aminoiminomethyl)phenyl]-N'-(tetrahydro-5-oxo-2-phenyl-3S-furanyl)butanediamide, trifluoroacetate (Isomer B)] — 7.1-fold higher, 2500 nM
- N=C(N)c1ccc(NC(=O)CCC(=O)NC(CC(=O)O)C(O)c2nccs2)cc1 (stereo not drawn) [Ex 6 Step 6, 3S-[[4-[[4-(aminoiminomethyl)phenyl]amino]-1,4-dioxobutyl]amino]-4-hydroxy-2-thiazolylbutanoic acid, trifluoroacetate] — within 1.5-fold, 450 nM
- N=C(N)c1ccc(NC(=O)CCC(=O)N[C@@H](CC(=O)O)C(O)c2ccc(F)cc2)cc1 (single isomer, unassigned) [Ex 5 Step 2, 3S-[[4-[[4-(aminoiminomethyl)-phenyl]amino]-1,4-]dioxobutyl]amino]-4-hydroxy-(4-fluoro-phenyl)butanoic acid, trifluoroacetate] — 2.3-fold higher, 800 nM
- N=C(N)c1ccc(NC(=O)CCC(=O)N[C@H]2CC(=O)OC2c2ccccc2)cc1 (single isomer, unassigned; isomer a) [Ex 2 Step 5, N-[4-(aminoiminomethyl)phenyl]-N'-(tetrahydro-5-oxo-2-phenyl-3S-furanyl)butanediamide, Trifluoroacetate (Isomer A)] — 1.9-fold higher, 650 nM
- N=C(N)c1ccc(NC(=O)CCC(=O)N[C@@H](CC(=O)O)C(O)c2ccccc2)cc1 (single isomer, unassigned) [Ex 2 Step 6, 3S-[[4-[[4-(aminoiminomethyl)phenyl]amino]-1,4dioxobutyl]amino]-4-hydroxy-phenyl-butanoic acid, trifluoroacetate] — 4.6-fold higher, 1600 nM
